Experimental data reported in US20110152358A1, “Compositions and Methods for Diagnosis and Treatment of Pancreatic Ductal Cancer” (priority 2008, published 2011).
Entries after “also recorded” stand apart in the source; their conditions may differ.

Key:
Type in all cases: cell-based, human
PANC-1 cells [1] = experiment: Matrigel cell invasion assay, sham and 14-3-3σ overexpressing PANC-1 clones; details: 20 hours
Description: (§1) Cell invasion was measured as reported previously, with some modification (Rowland-Goldsmith, M. A. et al. 2001. Clin. Cancer Res. 7:2931-2940). Briefly, cells were suspended in 500 μL of serum-free medium (0.1% BSA) and placed onto the upper compartment of Matrigel-coated transwell chambers (8 μm pore sized, BioCoat Matrigel Invasion Chambers, BD Biosciences, San Jose, Calif.). The lower compartment was filled with 750 μL of medium containing serum free media in the absence or presence of the respective growth factors. After 18-20 hours, cells on the upper surface of the filter were carefully removed with a cotton swab and the membranes were fixed in methanol. The cells that had migrated through the membrane to the lower surface of the filter were stained with toluidine blue (Fisher Scientific, Fair Lawn, N.J.) and counted using a light microscope.

T3M4 cells [2] = experiment: Matrigel cell invasion assay, shRNA infected T3M4 cells; details: 18 hours
Description: as §1

T3M4 cells [3] = experiment: in vitro wound-healing (migration) assay, shRNA infected T3M4 cells; details: EGF 1 nmol/L; 24 hours; control shRNA, sh1 or sh2 infected cells; percentage change in wound area
Description: (§2) To assess the motility properties, in vitro wound-healing assays or migration assays were performed. Cells were grown to confluence in 6-well tissue culture plates, serum starved overnight, and the monolayer was scratched with a 200 μL pipette tip generating two parallel wounds. The scratched wells were washed to remove cell debris and incubated for the next 24 hours in serum free media in the absence or presence 1 nmol/L EGF with or without the Src family kinase inhibitor PP2 (4-amino-5-(4-chlorophenyl)-7-(t-butyl)pyrazolo[3,4-d]pyrimidine) (Alexis, La Jolla, Calif.). To monitor cell migration, photographs were taken of each well at five marked locations under 40× magnification immediately after wounding (t0) and again 24 hours after wounding (t24), using an inverted microscope fitted with a digital camera (Nikon Diaphot 300, Nikon, Japan). The wound area of five matched pictures at t0 and t24 from each well were then measured using the ImageJ software (NIH, Bethedsa, Md.), and the percentage change in the wound area was calculated.

PANC-1 cells [4] = experiment: in vitro wound-healing (migration) assay, sham and 14-3-3σ overexpressing PANC-1 clones; details: EGF 1 nmol/L; serum free media; 24 hours
Description: as §2

PANC-1 cells [5] = experiment: MTT assay, survival of PANC-1 clones with cisplatinum; details: 10 μg/mL cisplatinum; 48 hours
Description: Sham-transfected PANC-1 cells and 14-3-3σ transfected clones (1×10^4) were plated in 96-well plates (six wells per sample). Cells were allowed to attach and grow for 48 hours in complete medium, and then treated with complete medium in the absence or presence of 10 μg/mL of cisplatinum (Sigma) for 48 hours, followed by the addition of MTT (3-[4,5-dimethylthiazol-2-yl]-2,5-diphenyltetrazolium bromide) (Sigma) at a final concentration 0.55 μg/mL. After an additional 4 hour incubation, absorbance at 570 nm was determined, with a reference of 650 nm, using a Emax precision microplate reader (Molecular devices, Sunnyvale, Calif.), as previously reported (Arnold, N. B. et al. 2004. Cancer Res. 64:3599-3606). It was previously determined that in pancreatic cancer cell lines the MTT assay correlates closely with cell growth as determined by cell counting and by assessing [^3H]thymidine incorporation (Raitano, A. B. and M. Korc. 1990. J. Biol. Chem. 265:10466-10472; Baldwin, R. L. and M. Korc. 1993. Growth Fact. 8:23-34).

T3M4 cells [6] = experiment: cisplatinum induced apoptosis, immunoblot of cleaved PARP and cleaved caspase-3, shRNA infected T3M4 cells; details: cisplatinum 10 νg/mL for 2, 6, or 24 hours
Description: (§3) Sham or 14-3-3σ transfected PANC-1 cells were incubated for 24 hours in complete medium in the absence or presence of 10 μg/mL of cisplatinum. Scrambled or 14-3-3σ specific shRNA infected T3M4 cells were incubated in complete medium for 24 hours that was supplemented with 10 μg/mL cisplatinum for the initial 2 or 6 hours, or the entire 24 hours. Both floating and adherent cells were then collected and lysed in the buffer containing protease inhibitors, subjected to 10% SDS-PAGE, and immunoblotted with specific antibodies against cleaved Poly (ADP-ribose) Polymerase (PARP) and cleaved caspase-3 (Cell Signaling Technology, Danvers, Mass.).

PANC-1 cells [7] = experiment: cisplatinum induced apoptosis, immunoblot of cleaved PARP and cleaved caspase-3, PANC-1 clones; details: 10 μg/mL cisplatinum; 24 hours
Description: as §3

IGF-1: IGF-1 growth factor used as chemoattractant at 1 nmol/L
invasion of PANC-1 clones overexpressing 14-3-3σ compared to sham cells (PANC-1 cells [1]; IGF-1 1 nmol/L): significantly increased | IGF-1-mediated invasion in presence of endogenously high levels of 14-3-3σ (T3M4 cells [2]; IGF-1 1 nmol/L, non-silenced T3M4): robust | IGF-1 effect on invasion in T3M4 cells in which 14-3-3σ was silenced (T3M4 cells [2]; IGF-1 1 nmol/L, sh1 or sh2 infected): markedly attenuated; also recorded: completely suppressed

EGF: EGF growth factor, ligand of the EGF receptor, added at 1 nmol/L (NSDSECPLSHDGYCLHDGVCMYIEALDKYACNCVVGYIGERCQYRDLKWWELR; UniProt P01133 971-1023, looked up)
EGF stimulated motility (T3M4 cells [3]): about 50% | motility of 14-3-3σ overexpressing cells (PANC-1 cells [4]): did not cause an additional increase in motility | motility of sham-transfected cells (PANC-1 cells [4]): slight but significant increase | invasion of sham transfected cells (PANC-1 cells [1]; EGF 1 nmol/L): not statistically significant | invasion of 14-3-3σ overexpressing clones (PANC-1 cells [1]; EGF 1 nmol/L, clones C1 and C7): markedly enhanced | invasion in 14-3-3σ downregulated cells (sh2 infected) compared to control shRNA infected cells (T3M4 cells [2]; EGF 1 nmol/L): marked increase

COc1cc2ncnc(Nc3cccc(Br)c3)c2cc1OC [AG 1517, reference compound]
effect on EGF induced invasion in 14-3-3σ downregulated cells (sh2 infected) (T3M4 cells [2]; EGF 1 nmol/L, AG 1517 1 μmol/L, PP2 10 μmol/L): suppressed

N.N.[Cl][Pt][Cl] [cisplatinum]
survival of 14-3-3σ overexpressing clones compared with Sham (MTT) (PANC-1 cells [5]): significant (p<0.01) increase | apoptosis (PARP cleavage, caspase-3 activation) in 14-3-3σ silenced cells compared to non-silenced cells (T3M4 cells [6]): increased apoptosis | PARP cleavage in 14-3-3σ overexpressing clones compared with sham transfected cells (PANC-1 cells [7]): attenuated | generation of cleaved caspase-3 in 14-3-3σ overexpressing clones compared with sham transfected cells (PANC-1 cells [7]): markedly decreased

C[S+]([O-])c1ccc(-c2nc(-c3ccncc3)c(-c3ccc(F)cc3)[nH]2)cc1 (stereo not drawn) [SB203580, reference compound]
effect on EGF-mediated invasion in 14-3-3σ overexpressing clones (PANC-1 cells [1]; EGF 1 nmol/L, LY 294002 5 μmol/L, SB 203580 10 μmol/L, PP2 10 μmol/L, clone C1): suppressed; also recorded: completely blocked
